In brackets after ≈: the same amount, converted by molar mass.
Tests used:
VIM-24 [1] = target: T1, VIM-24 (Escherichia coli, UniProt Q5U7L7, R205L); assay: BTZ inhibition kinetics of nitrocefin hydrolysis by VIM-24; format: biochemical, Klebsiella pneumoniae; settings: overall dissociation constant from vs, slow binding model
VIM-2 [2] = target: T2, VIM-2 (Escherichia coli, UniProt Q5U7L7); assay: BTZ inhibition kinetics of nitrocefin hydrolysis by VIM-2; format: biochemical, P. aeruginosa; settings: overall dissociation constant from vs, slow binding model
MBLs = assay: Inhibitory activity toward MBLs after prolonged exposure to oxidative conditions; format: biochemical; settings: assays in solution; data not shown
[3] = test system: E. coli DH10B pBCSK(−) producing R228K; assay: MIC by agar dilution, E. coli DH10B pBCSK; format: cell-based; settings: Escherichia coli
E. coli pBC SK(−) = assay: MIC by agar dilution, E. coli DH10B with empty pBC SK; format: cell-based; settings: Escherichia coli
[4] = test system: E. coli DH10B pBCSK(−) producing R228Q; assay: MIC by agar dilution, E. coli DH10B pBCSK; format: cell-based; settings: Escherichia coli
[5] = test system: E. coli DH10B pBCSK(−) producing VIM-2 (228R); assay: MIC by agar dilution, E. coli DH10B pBCSK; format: cell-based; settings: Escherichia coli
[6] = test system: E. coli DH10B pBCSK(−) producing VIM-24 (R228L); assay: MIC by agar dilution, E. coli DH10B pBCSK; format: cell-based; settings: Escherichia coli
[7] = test system: E. coli DH10B pBCSK(−) producing R228P; assay: MIC by agar dilution, E. coli DH10B pBCSK; format: cell-based; settings: Escherichia coli
[8] = test system: E. coli DH10B pBCSK(−) producing R228M; assay: MIC by agar dilution, E. coli DH10B pBCSK; format: cell-based; settings: Escherichia coli
[9] = test system: E. coli DH10B pBCSK(−) producing R228X (other variants); assay: MIC by agar dilution, E. coli DH10B pBCSK; format: cell-based; settings: Escherichia coli, R228X: range of MIC values of the other variants; MHA
[10] = test system: E. coli DH10B pBCSK(−) producing R228Y; assay: MIC by agar dilution, E. coli DH10B pBCSK; format: cell-based; settings: Escherichia coli
VIM-24 [11] = target: T1, VIM-24; format: biochemical, Klebsiella pneumoniae; settings: VIM-24; substrate hydrolysis, 10 mM HEPES pH 7.5, 25 °C
VIM-2 [12] = target: T2, VIM-2; assay: Hydrolysis of cefepime and ceftazidime by periplasm preparations, VIM-2; format: biochemical, P. aeruginosa; settings: VIM-2 periplasmic preparation; 800 μM cefepime
VIM-24 [13] = target: T1, VIM-24; assay: Hydrolysis of cefepime and ceftazidime by periplasm preparations, VIM-24; format: biochemical, Klebsiella pneumoniae; settings: VIM-24 periplasmic preparation; 800 μM cefepime
[14] = test system: VIM-24-producing K. pneumoniae; assay: Imipenem MIC of the clinical isolate, VIM-24-producing K. pneumoniae; format: cell-based; settings: Klebsiella pneumoniae, read-out: imipenem MIC, VIM-24-producing K. pneumoniae
[15] = test system: VIM-2-producing P. aeruginosa; assay: Imipenem MIC of the clinical isolate, VIM-2-producing P. aeruginosa; format: cell-based, Pseudomonas aeruginosa

Structure (SMILES)	MIC ([3]; MHA) [µg/mL]	MIC (E. coli pBC SK(−); MHA) [µg/mL]	MIC ([4]; MHA) [µg/mL]	MIC ([5]; MHA) [µg/mL]	MIC ([6]; MHA) [µg/mL]	MIC ([7]; MHA) [µg/mL]	MIC ([8]; MHA) [µg/mL]	MIC [9] [µg/mL]	MIC ([10]; MHA) [µg/mL]	kcat (VIM-24 [11]) [s⁻¹]	MIC ([3]; MHA + 5 μM EDTA) [µg/mL]	MIC ([3]; MHA + 250 μM Zn^2+) [µg/mL]	MIC (E. coli pBC SK(−); MHA + 5 μM EDTA) [µg/mL]	MIC (E. coli pBC SK(−); MHA + 250 μM Zn^2+) [µg/mL]	MIC ([4]; MHA + 5 μM EDTA) [µg/mL]	MIC ([4]; MHA + 250 μM Zn^2+) [µg/mL]	MIC ([5]; MHA + 5 μM EDTA) [µg/mL]	MIC ([5]; MHA + 250 μM Zn^2+) [µg/mL]	MIC ([6]; MHA + 5 μM EDTA) [µg/mL]	MIC ([6]; MHA + 250 μM Zn^2+) [µg/mL]	other results
O=C(O)[C@@H]1CS[C@H]2CS[C@H](CS)N21 [L-CS319]	–	–	–	–	–	–	–	–	–	–	–	–	–	–	–	–	–	–	–	–	Ki (VIM-24 [1]): 120 ± 20 nM; Ki (VIM-2 [2]): 40 ± 10 nM; effect of prolonged exposure to oxidative conditions on inhibitory activity (MBLs): abolishes the inhibitory activity
CC(=O)OCC1=C(C(=O)O)N2C(=O)[C@@H](NC(=O)Cc3cccs3)[C@H]2SC1 [cephalothin]	16 (≈ 40.4 µM)	8 (≈ 20.2 µM)	1020 (≈ 2580 µM)	256 (≈ 646 µM)	256 (≈ 646 µM)	16 (≈ 40.4 µM)	256 (≈ 646 µM)	64 to 256 (≈ 161 to 646 µM)	256 (≈ 646 µM)	150 ± 9	–	–	–	–	–	–	–	–	–	–	–
O=C(Cc1cccs1)N[C@@H]1C(=O)N2C(C(=O)O)=C(/C=C/c3ccc([N+](=O)[O-])cc3[N+](=O)[O-])CS[C@H]12 [nitrocefin]	–	–	–	–	–	–	–	–	–	171 ± 4	–	–	–	–	–	–	–	–	–	–	–
CO/N=C(\C(=O)N[C@@H]1C(=O)N2C(C(=O)[O-])=C(C[N+]3(C)CCCC3)CS[C@H]12)c1csc(N)n1 [cefepime]	0.5 (≈ 1.04 µM)	0.03 (≈ 0.0624 µM)	16 (≈ 33.3 µM)	≤ 0.5	4 (≈ 8.32 µM)	0.25 (≈ 0.52 µM)	2 (≈ 4.16 µM)	1 to 4 (≈ 2.08 to 8.32 µM)	8 (≈ 16.6 µM)	–	≤ 0.25	≤ 0.25	≤ 0.25	≤ 0.25	16	32	0.5	0.5	4	4	rate of hydrolysis (initial velocity) in periplasm (VIM-2 [12]): 2.9e-07 M/s; MIC ([7]; MHA + 5 μM EDTA): ≤ 0.25 µg/mL; MIC ([7]; MHA + 250 μM Zn^2+): 0.5 µg/mL; MIC ([8]; MHA + 5 μM EDTA): 4 µg/mL; MIC ([8]; MHA + 250 μM Zn^2+): 2 µg/mL; MIC ([10]; MHA + 5 μM EDTA): 8 µg/mL; MIC ([10]; MHA + 250 μM Zn^2+): 8 µg/mL; rate of hydrolysis (initial velocity) in periplasm (VIM-24 [13]): 5.3e-07 M/s
C[C@@H](O)[C@H]1C(=O)N2C(C(=O)O)=C(SCCN=CN)C[C@H]12 [imipenem]	0.25 (≈ 0.835 µM)	0.25 (≈ 0.835 µM)	4 (≈ 13.4 µM)	0.5 (≈ 1.67 µM)	0.5 (≈ 1.67 µM)	0.5 (≈ 1.67 µM)	2 (≈ 6.68 µM)	0.25 to 1 (≈ 0.835 to 3.34 µM)	1 (≈ 3.34 µM)	8.8 ± 0.3	0.25	0.25	≤ 0.125	0.25	4	> 4	0.5	1	0.5	1	MIC [14]: 2 µg/mL; MIC ([7]; MHA + 5 μM EDTA): ≤ 0.125 µg/mL; MIC ([7]; MHA + 250 μM Zn^2+): 0.25 µg/mL; MIC ([8]; MHA + 5 μM EDTA): 1 µg/mL; MIC ([8]; MHA + 250 μM Zn^2+): 4 µg/mL; MIC ([15]; Pseudomonas aeruginosa, read-out: imipenem MIC): 32 µg/mL; imipenem MIC ([15]; VIM-2 harboring P. aeruginosa clinical isolate): 32 µg/mL; MIC ([10]; MHA + 5 μM EDTA): 1 µg/mL; MIC ([10]; MHA + 250 μM Zn^2+): 1 µg/mL; Km (VIM-24 [11]): 5 ± 0.7 µM
CO/N=C(\C(=O)N[C@@H]1C(=O)N2C(C(=O)O)=C(CSc3nc(=O)c(=O)[nH]n3C)CS[C@H]12)c1csc(N)n1 [ceftriaxone]	1 (≈ 1.8 µM)	0.5 (≈ 0.902 µM)	32 (≈ 57.7 µM)	8 (≈ 14.4 µM)	8 (≈ 14.4 µM)	0.5 (≈ 0.902 µM)	16 (≈ 28.9 µM)	1 to 16 (≈ 1.8 to 28.9 µM)	16 (≈ 28.9 µM)	–	–	–	–	–	–	–	–	–	–	–	–

— publication PMC4700511 (Biochemistry, 2015)
